Measured values: patent EP2386300A1, “Use of dronedarone for the preparation of a medicament for use in the prevention of cardiovascular hospitalization or of mortality in patients having a first recurrence of atrial fibrillation or atrial flutter” (SANOFI, priority 2010, dated 2011)
Counter-ions that a name gives are not always drawn.

System: patients having a history of atrial fibrillation or atrial flutter
Assay: Prospective, multinational, multicentre, double-blind, placebo-controlled clinical study (ATHENA); analysis restarting the clock at first AF/AFL recurrence
Type: in vivo
Method: More particularly, the effects of dronedarone compared with placebo on cardiovascular (CV) end points were evaluated by restarting the clock at the time of first atrial fibrillation or atrial flutter recurrence detected in a scheduled ECG or requiring cardioversion.
The patients had to have a history of atrial fibrillation or flutter and/or could be in normal sinus rhythm or in atrial fibrillation or flutter at inclusion.
The patient recruitment was carried out by taking into account the following inclusion criteria:
• 1) One of the following risk factors had to be present: • age equal to or greater than 70 years, • hypertension (taking antihypertensives of at least two different classes), • diabetes, • history of cerebral stroke (transient ischemic event or completed cerebral stroke) or of systemic embolism, • left atrial diameter greater than or equal to 50 mm measured by echocardiography, • left ventricular ejection fraction less than 40%, measured by two-dimensional echography; or • age equal to or above 70, or even above 75, possibly combined with at least one of the risk factors below: • o hypertension (taking antihypertensives of at least two different classes), • o diabetes, • o history of cerebral stroke (transient ischemic event or completed cerebral stroke) or of systemic embolism, • o left atrial diameter greater than or equal to 50 mm measured by echocardiography, • o left ventricular ejection fraction less than 40%, measured by two-dimensional echography; • 2) availability of an electrocardiogram carried out during the past 6 months in order to document the presence or the history of atrial fibrillation or flutter; • 3) availability of an electrocardiogram carried out during the past 6 months in order to document the presence or absence of normal sinus rhythm.
• Patients in permanent atrial fibrillation • Patients in unstable hemodynamic condition such as acute pulmonary edema within 12 hours prior to start of study medication; cardiogenic shock; treatment with IV pressor agents; patients on respirator; congestive heart failure of stage NYHA IV within the last 4 weeks; uncorrected, hemodynamically significant primary obstructive valvular disease; hemodynamically significant obstructive cardomyopathy; a cardiac operation or revascularization procedure within 4 weeks preceding randomization • Planned major non-cardiac or cardiac surgery or procedures including surgery for valvular heart disease, coronary artery bypass graft (CABG), percutaneous coronary intervention (PCI), or on urgent cardiac transplantation list • Acute myocarditis or constrictive pericarditis • Bradycardia < 50 bpm and/or PR-interval ≥ 0.28 sec on the last 12-lead ECG. • Significant sinus node disease (documented pause of 3 seconds or more) or 2nd or 3rd degree atrioventricular block (AV-block) unless treated with a pacemaker.
• Plasma potassium < 3.5 mmol/I (as anti-arrhythmic drugs can be arrhythmogenic in patients with hypokalemia, this must be corrected prior to randomization. • A calculated GFR at baseline < 10 ml/min using the Cockroft Gault formula (GFR [ml/min] = (140 - AGE [years] * WEIGHT [kilograms] * CONSTANT / CREATININE [µmol/L], where CONSTANT is 1 for men and 0.85 for women )^i
Treatment was initiated using tablets containing either the placebo or an amount of dronedarone hydrochloride corresponding to 400 mg of dronedarone at a rate of twice a day with the morning and evening meal and more specifically at a rate of one tablet in the morning during or shortly after breakfast and one tablet in the evening during or shortly after dinner.
The anticipated duration of the treatment was variable according to the time at which each patient was included in the study, and could range from a minimum of 12 months for the last patient included up to a maximum corresponding to the entire duration of the study (12 months + duration of inclusion), i.e. approximately 30 months for the first patients included.

[1] = 1 - relative risk, versus placebo, after first AF/AFL recurrence

Compound	reduction in cardiovascular hospitalizations [1] [%]	reduction in cardiovascular hospitalizations or deaths [1] [%]	reduction in cardiovascular mortality [1] [%]	reduction of death [1] [%]	cardiovascular deaths (673 treated patients with a first AF/AFL recurrence, placebo 35) [cardiovascular deaths]	deaths (mortality from any cause) (673 treated patients with a first AF/AFL recurrence, placebo 51 deaths) [deaths]	events, cardiovascular hospitalizations (673 treated patients with a first AF/AFL recurrence, placebo 288 events) [events]	events, cardiovascular hospitalizations or mortality (principal judgement criterion) (673 treated patients with a first AF/AFL recurrence, placebo 306 events) [events]	relative risk, cardiovascular hospitalizations or deaths (versus placebo, Cox model, after first AF/AFL recurrence, p = 0.0025)	relative risk, cardiovascular hospitalizations (versus placebo, Cox model, after first AF/AFL recurrence, p = 0.0048)	relative risk, death from any cause (versus placebo, Cox model, after first AF/AFL recurrence, p = 0.018)	relative risk, cardiovascular mortality (versus placebo, Cox model, after first AF/AFL recurrence, p = 0.0342)	primary composite end point occurred in patients (after a first AF recurrence, CV hospitalization or all-cause mortality, placebo 306) [patients]	primary composite end point occurred in patients (%) (after a first AF recurrence, placebo 38.6%)	patients hospitalized for worsening heart failure (including pulmonary edema or dyspnea of cardiac origin) (after first AF/AFL recurrence, placebo 5.0%) [%]	patients hospitalized for AF (after first AF/AFL recurrence, placebo 21.2%) [%]	total time spent in hospital (all patients with a first AF/AFL recurrence, placebo 1789 nights, P < 0.01) [nights]	percentage of hospitalization time spent in intensive care units (compared with the placebo group, P = 0.01, Figure 3)	first AF recurrence (percentage of patients with a first AF recurrence, placebo 34.1%) [%]
CCCCc1oc2ccc(NS(C)(=O)=O)cc2c1C(=O)c1ccc(OCCCN(CCCC)CCCC)cc1 [dronedarone hydrochloride]	23	24	47	44	15	23	195	205	0.76	0.77	0.56	0.53							
CCCCc1oc2ccc(NS(C)(=O)=O)cc2c1C(=O)c1ccc(OCCCN(CCCC)CCCC)cc1 [dronedarone, 2-n-Butyl-3-[4-(3-di-n-butylaminopropoxy)benzoyl]-5-methylsulphonamidobenzofuran]													205	30.5	3.6	15.8	1273	lower	29.3
